For 28 compounds, IC50 results are on record in patent publication US20240228481A1, “NOVEL SULFONAMIDE SERIES OF QR2 INHIBITORS TO TACKLE OXIDATIVE STRESS AND COGNITIVE DECLINE” (CARMEL HAIFA UNIVERSITY ECONOMIC CORPORATION LTD., priority 2021, published 2024).

Each structure is given as a SMILES string.

By IC50 is commonly meant the concentration needed to halve the response being measured.

What all share (assay type): biochemical
The target of assay [1] is T1, QR1 (NQO1) (Homo sapiens, UniProt P15559).
T1 construct: purchased Sigma-Aldrich
T1 sequence (P15559 whole entry): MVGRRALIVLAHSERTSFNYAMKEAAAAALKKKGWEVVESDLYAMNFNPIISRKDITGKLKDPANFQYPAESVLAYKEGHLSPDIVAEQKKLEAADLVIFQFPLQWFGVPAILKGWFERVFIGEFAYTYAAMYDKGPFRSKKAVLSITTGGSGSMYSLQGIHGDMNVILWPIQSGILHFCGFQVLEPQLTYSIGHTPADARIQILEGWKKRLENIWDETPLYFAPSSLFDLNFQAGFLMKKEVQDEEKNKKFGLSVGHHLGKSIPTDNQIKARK
Nature of the assay: Selectivity assay with QR1 in place of QR2, absorbance readout. The method, then:
(§1) The enzymatic activity of QR2 (10 nM) was measured using menadione (both Sigma-Aldrich) as substrate and dihydrobenzylnicotamide (BNAH; Tocris) as co-substrate (Boutin et al., 2005). The reaction was performed in 50 mM Tris HCl, 150 mM NaCl 0.01% Tween-20 pH=8.5 (Sigma-Aldrich) at room temperature. Briefly, 3 μL of menadione alone (200 μM) or a mixture of menadione and QR2 (200 μM of menadione and 10 nM of QR2) were dispensed in 1536-well black Nunc plates (Thermo-Fisher) using a Multidrop™ Combi Reagent Dispenser (Thermo-Fisher) and pre-incubated with compounds for 10 min. BNAH (200 μM) was then added (3 μL) to the reaction using a BioNex Solutions BNX 1536 plate washer and the plates were incubated for another 10 min. […] The initial HTS was done with approximately 200,000 compounds at a single concentration of 5 μM. The chemical libraries used were Selleck Chemicals Bioactives, the Drug-like set from Enamine, HitFinder collection from Maybridge, Spectrum Collection from Microsource, Lopac from Sigma-Aldrich and the diversity sets from ChemDiv and ChemBridge. Initial “hit” compounds were defined as causing >30% reduction of enzyme activity. Compounds suspected to be fluorescent were re-assayed in an absorbance assay at 350 nm using the same reaction but in a higher volume (100 μL), in a transparent plate (Greiner Bio-One). “Hit” compounds resulting from both the fluorescence and absorbance assay were tested in a dose-response, and median inhibition concentration (IC50) values were determined. In parallel, the same dose response was used in a selectivity assay where QR2 enzyme was replaced by QR1 (also known as—NQO1, 10 nM; Sigma-Aldrich).
(§2) In order to establish a varied, flexible and chemically amenable starting point from which to develop such inhibitors, the inventors ran a standardized QR2 assay (see methods) against ˜200,000 compounds, from a varied assortment of chemical libraries. […] Compounds that replicated the initial hit result were then assayed similarly, against NQO1, to evaluate compound specificity (FIG. 1B). From the HTS, a series of compounds containing a sulfonamide central linker, with an amine on one side and a heterocycle on the other, were identified and selected for SAR development (FIG. 1C).

Assay [2] concerns the target T1, QR1 (NQO1). Nature of the assay: Selectivity assay with QR1 in place of QR2, fluorescence readout. On the procedure: as §1, §2
Assay [3] deals with T2, QR2 (Homo sapiens, UniProt P16083).
T2 sequence (P16083 1-231): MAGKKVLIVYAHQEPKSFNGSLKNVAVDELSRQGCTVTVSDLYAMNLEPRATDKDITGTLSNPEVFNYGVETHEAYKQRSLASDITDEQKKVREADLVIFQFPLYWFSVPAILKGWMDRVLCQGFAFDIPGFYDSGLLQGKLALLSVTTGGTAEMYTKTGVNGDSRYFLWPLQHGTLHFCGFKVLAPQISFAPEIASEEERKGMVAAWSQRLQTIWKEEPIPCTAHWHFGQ
In words: QR2 enzymatic activity assay (menadione/BNAH), absorbance readout at 350 nm. Further details: purchased Sigma-Aldrich. The method, then:
(§3) The enzymatic activity of QR2 (10 nM) was measured using menadione (both Sigma-Aldrich) as substrate and dihydrobenzylnicotamide (BNAH; Tocris) as co-substrate (Boutin et al., 2005). The reaction was performed in 50 mM Tris HCl, 150 mM NaCl 0.01% Tween-20 pH=8.5 (Sigma-Aldrich) at room temperature. Briefly, 3 μL of menadione alone (200 μM) or a mixture of menadione and QR2 (200 μM of menadione and 10 nM of QR2) were dispensed in 1536-well black Nunc plates (Thermo-Fisher) using a Multidrop™ Combi Reagent Dispenser (Thermo-Fisher) and pre-incubated with compounds for 10 min. BNAH (200 μM) was then added (3 μL) to the reaction using a BioNex Solutions BNX 1536 plate washer and the plates were incubated for another 10 min. […] The initial HTS was done with approximately 200,000 compounds at a single concentration of 5 μM. The chemical libraries used were Selleck Chemicals Bioactives, the Drug-like set from Enamine, HitFinder collection from Maybridge, Spectrum Collection from Microsource, Lopac from Sigma-Aldrich and the diversity sets from ChemDiv and ChemBridge. Initial “hit” compounds were defined as causing >30% reduction of enzyme activity. […] “Hit” compounds resulting from both the fluorescence and absorbance assay were tested in a dose-response, and median inhibition concentration (IC50) values were determined. In parallel, the same dose response was used in a selectivity assay where QR2 enzyme was replaced by QR1 (also known as—NQO1, 10 nM; Sigma-Aldrich).
(§4) In order to establish a varied, flexible and chemically amenable starting point from which to develop such inhibitors, the inventors ran a standardized QR2 assay (see methods) against ˜200,000 compounds, from a varied assortment of chemical libraries.

For assay [4], the target named is T2, QR2. Nature of the assay: QR2 enzymatic activity assay (menadione/BNAH), fluorescence readout. Further details: purchased Sigma-Aldrich. On the procedure:
as §3, §4

Turning to `Cc1ccn2cc(-c3cccc(S(=O)(=O)N4CC(C)CC(C)C4)c3)nc2c1` (stereo not shown) [PCM-0124575], the IC50 in assay [1] was above 9.99 µM; in assay [2] it was above 9.9 µM; in assay [3], 1.22 µM; in assay [4], 2.18 µM.

With `Cc1ccc2nc(-c3cccc(S(=O)(=O)N4CCOCC4)c3)cn2c1` [PCM-0124615], the IC50 in assay [1] was above 9.99 µM; in assay [2] it was above 9.9 µM; in assay [3], 1.65 µM; in assay [4] it was 3.25 µM.

Regarding `Cc1ccc2nc(-c3cccc(S(=O)(=O)N4CC(C)OC(C)C4)c3)cn2c1` (stereo not shown) [PCM-0124655], the IC50 in assay [1] is above 9.99 µM; in assay [2] it was above 9.9 µM; in assay [3], 3.03 µM; in assay [4], 4.42 µM.

Turning to `CCCN(CCC)S(=O)(=O)c1cccc(-c2cn3cccc(C)c3n2)c1` [PCM-0124772], the IC50 is above 9.99 µM in assay [1], above 9.9 µM in assay [2], 0.75 µM in assay [3] and 0.83 µM in assay [4].

As to `Cc1ccc(-c2nnc(-c3ccccc3)o2)cc1S(=O)(=O)N(C)C` [PCM-0127506], the IC50 in assay [1] was above 9.99 µM; in assay [2] it was above 9.99 µM; in assay [3], 1.62 µM; in assay [4], 2.2 µM.

For `CCN(CC)S(=O)(=O)c1cc(-c2nnc(-c3ccccc3)o2)ccc1C` [PCM-0127546], the IC50 in assay [1] was above 9.99 µM; in assay [2], above 9.9 µM; in assay [3] it was 3.12 µM; in assay [4] it was 4.82 µM.

Take `Cc1ccc(-c2nnc(-c3ccccc3)o2)cc1S(=O)(=O)N1CCC(C)CC1` [PCM-0127586]: the IC50 in assay [1] is above 9.99 µM; in assay [2] it was above 9.99 µM; in assay [3] it was 1.2 µM; in assay [4], 5.97 µM.

Turning to `Cc1c(-c2nnc(C3CCC3)o2)c(S(=O)(=O)NCc2ccc(Cl)cc2)c(C)n1C` [PCM-0128885], the IC50 is above 9.99 µM in assay [1], above 9.9 µM in assay [2], above 9.99 µM in assay [3] and above 9.9 µM in assay [4].

With `COc1cc(Cl)c(NS(=O)(=O)c2ccc(-c3cc(C)no3)cc2OC)c(OC)c1` [PCM-0131156], the IC50 in assay [1] was above 9.99 µM; in assay [2], above 9.9 µM; in assay [3], 2.73 µM; in assay [4] it was 3.82 µM.

On to `Cc1cc(-c2ccc(C)c(S(=O)(=O)NCC3CCN(Cc4ccco4)CC3)c2)on1` [PCM-0136246], for which the IC50 was above 9.99 µM in assay [1], above 9.9 µM in assay [2], 2.56 µM in assay [3] and 3.98 µM in assay [4].

Regarding `O=c1n(Cc2ccc(Cl)cc2)nc2ccc(S(=O)(=O)N3CCCCC3)cn12` [PCM-0140113], the IC50 in assay [1] was above 9.99 µM; in assay [2], above 9.9 µM; in assay [3] it was above 9.99 µM; in assay [4] it was above 9.9 µM.

Turning to `COc1ccc(S(=O)(=O)N2CCC(NC(=O)N3CCCC3)CC2)cc1` [PCM-0154188], the IC50 was above 9.99 µM in assay [1], above 9.9 µM in assay [2], 3.83 µM in assay [3] and 2.06 µM in assay [4].

Take `N#Cc1nc(-c2ccc(S(=O)(=O)N3CCCC3)cc2)oc1NCCCN1CCOCC1` [PCM-0172736]: the IC50 in assay [1] was above 9.99 µM; in assay [2], below 0.83 µM; in assay [3], above 9.99 µM; in assay [4] it was below 0.83 µM.

For the compound `CNC(=O)N1CCc2cc(S(=O)(=O)N3CCc4ccccc43)ccc21` [PCM-0181527], the IC50 in assay [1] is above 9.99 µM; in assay [2], above 9.9 µM; in assay [3], above 9.99 µM; in assay [4], above 9.9 µM.

In the case of `Cc1cc(-c2ccc(C)c(S(=O)(=O)Nc3ccc(Cl)cc3)c2)[nH]n1` [PCM-0186036], the IC50 is above 9.99 µM in assay [1], above 9.99 µM in assay [2], 1.16 µM in assay [3] and 2.36 µM in assay [4].

Take `O=S(=O)(Nc1cccc(-c2cn3ccsc3n2)c1)c1ccc2c(c1)OCCO2` [PCM-0190999]: the IC50 is below 0.75 µM in assay [1], below 0.83 µM in assay [2], 4.03 µM in assay [3] and 5.62 µM in assay [4].

Turning to `COc1ccc(O)cc1NC(=O)c1oc2ccc(S(=O)(=O)N3CCCC3)cc2c1C` [PCM-0193675], the half-inhibitory concentration (IC50) is above 9.99 µM in assay [1], above 9.9 µM in assay [2], above 9.99 µM in assay [3] and above 9.9 µM in assay [4].

Regarding `Cc1csc(-c2cc(S(=O)(=O)NC3CCCCC3)c(C)n2C)n1` [PCM-0195577], the IC50 is above 9.99 µM in assay [1], above 9.9 µM in assay [2], above 9.99 µM in assay [3] and above 9.9 µM in assay [4].

For the compound `CCOC(=O)C1CCN(S(=O)(=O)c2cc(-c3csc(C)n3)ccc2C)CC1` [PCM-0197024], the IC50 in assay [1] was above 9.99 µM; in assay [2], above 9.9 µM; in assay [3] it was 3.2 µM; in assay [4], 4.16 µM.

For the compound `Cc1nc(-c2ccc(C)c(S(=O)(=O)N3CCN(C(=O)c4ccco4)CC3)c2)cs1` [PCM-0197066], the IC50 in assay [1] was above 9.99 µM; in assay [2] it was above 9.99 µM; in assay [3], 1.28 µM; in assay [4], 4.65 µM.

Take `Cc1nc(-c2ccc(C)c(S(=O)(=O)N3CCC(C)CC3)c2)cs1` [PCM-0197104]: the IC50 in assay [1] was above 9.99 µM; in assay [2], above 9.99 µM; in assay [3], 4.58 µM; in assay [4], 7.4 µM.

In the case of `CCc1noc(-c2c(S(=O)(=O)NCc3cccc(OC)c3)c(C)n(C)c2C)n1` [PCM-0200337], the IC50 in assay [1] was above 9.99 µM; in assay [2] it was above 9.9 µM; in assay [3], 8.09 µM; in assay [4], above 9.9 µM.

Turning to `CS(=O)(=O)N(C1CC1)C1CCOC2(CCN(C(=O)C3(c4ccccc4)CC3)CC2)C1` (stereo not shown) [PCM-0207818], the IC50 was above 9.99 µM in assay [1], above 9.9 µM in assay [2], above 9.99 µM in assay [3] and above 9.9 µM in assay [4].

For `Cc1cccn2cc(-c3cccc(S(=O)(=O)Nc4ccc(Cl)cc4)c3)nc12` [PCM-0213788], the half-maximal inhibitory concentration (IC50) is above 9.99 µM in assay [1], above 9.99 µM in assay [2], 0.05 µM in assay [3] and 3.04 µM in assay [4].

Regarding `Cc1ccn2cc(-c3ccc(C)c(S(=O)(=O)N4CCN(C(=O)c5ccco5)CC4)c3)nc2c1` [PCM-0213790], the IC50 was 7.15 µM in assay [1], above 9.99 µM in assay [2], 0.11 µM in assay [3] and 0.27 µM in assay [4].

In the case of `Cc1cc(-c2ccc(C)c(S(=O)(=O)N3CCN(C(=O)c4ccco4)CC3)c2)n[nH]1` [PCM-0213791], the IC50 in assay [1] is above 9.99 µM; in assay [2] it was above 9.99 µM; in assay [3], 0.08 µM; in assay [4], 0.26 µM.

Take `Cc1nc(-c2ccc(C)c(S(=O)(=O)NCCCN3CCCC3=O)c2)cs1` [PCM-0213793]: the IC50 in assay [1] was above 9.99 µM; in assay [2] it was above 9.99 µM; in assay [3] it was 2.91 µM; in assay [4], 5.45 µM.

With `Cc1cccn2cc(-c3cccc(S(=O)(=O)NCCCN4CCCC4=O)c3)nc12` [PCM-0213794], the IC50 was above 9.99 µM in assay [1], above 9.99 µM in assay [2], 0.11 µM in assay [3] and 0.25 µM in assay [4].
